Measurements from patent publication US20100267561A1, “HERBICIDAL PYRIDAZINONE DERIVATIVES” (priority 2007, published 2010).
Like-named read-outs stand apart in the source and are kept apart here.

Tests used:
Experiment in all cases: Test B pre-/postemergence plant response
Format in all cases: in vivo
[1] = system: eastern black (E.B.) nightshade (Solanum ptycanthum); conditions: Preemergence; for Nightshade, E. B. plant response rating: scale 0 to 100
Outline: (§1)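 Visual scoring from 0 (no effect) to 100 (complete control) against untreated controls was done 13 to 15 days after greenhouse treatment. Chemicals were formulated in a surfactant-containing non-phytotoxic solvent and applied to soil preemergence or to 1- to 4-leaf (2-18 cm) plants postemergence.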

[2] = system: surinam grass (Brachiaria decumbens); conditions: for pest or weed control at 31 g/ha / pest or weed control at 62 g/ha: Urochloa decumbens, read-out: Plant response rating, Surinam Grass; for pest or weed control at 31 g/ha: 31 g ai/ha; for pest or weed control at 62 g/ha: 62 g ai/ha, 100 complete control
Outline: as §1

[3] = system: morningglory (Ipomoea coccinea); conditions: for pest or weed control at 31 g/ha / pest or weed control at 62 g/ha: Ipomoea, read-out: Plant response rating, Morningglory; for pest or weed control at 31 g/ha: 31 g ai/ha; for pest or weed control at 62 g/ha: 62 g ai/ha, 100 complete control
Outline: as §1

[4] = system: catchweed bedstraw (Galium aparine); conditions: Preemergence; for Galium plant response rating: scale 0 to 100
Outline: as §1

[5] = system: Italian ryegrass (Lolium multiflorum); conditions: for pest or weed control at 31 g/ha / pest or weed control at 62 g/ha: Lolium multiflorum, read-out: Plant response rating, Ryegrass, Italian; for pest or weed control at 31 g/ha: 31 g ai/ha; for pest or weed control at 62 g/ha: 62 g ai/ha, 100 complete control
Outline: as §1

[6] = system: cocklebur (Xanthium strumarium); conditions: for pest or weed control at 31 g/ha: 31 g ai/ha; for pest or weed control at 62 g/ha: 62 g ai/ha, 100 complete control
Outline: as §1

[7] = system: yellow nutsedge (Cyperus esculentus); conditions: for pest or weed control at 31 g/ha / pest or weed control at 62 g/ha: Cyperus, read-out: Plant response rating, Nutsedge, Yellow; for pest or weed control at 31 g/ha: 31 g ai/ha; for pest or weed control at 62 g/ha: 62 g ai/ha, 100 complete control
Outline: as §1

[8] = 8 g ai/ha, postemergence, 0-100 scale
[9] = 16 g ai/ha, postemergence, 0-100 scale
[10] = Preemergence, 8 g ai/ha, scale 0 to 100
[11] = Preemergence, 16 g ai/ha, scale 0 to 100
[12] = post-emergence, Postemergence, scale 0 to 100
[13] = post-emergence, Postemergence, scale 0 to 100, 0 no effect
[14] = pre-emergence, Preemergence, scale 0 to 100 (0 no effect, 100 complete control)
[15] = pre-emergence, Preemergence, 0 to 100 scale, 0 no effect

Cc1nn(C)c(=O)c(-n2nc(-c3ccc(C(F)(F)F)cc3)cc2C)c1O [Compound 75, 5-hydroxy-2,6-dimethyl-4-[5-methyl-3-[4-(trifluoromethyl)phenyl]-1H-pyrazol-1-yl]-3(2H)-pyridazinone]
Nightshade, E. B. plant response rating ([1]; 8 g ai/ha): 0 | Nightshade, E. B. plant response rating ([1]; 16 g ai/ha): 0 | pest or weed control at 31 g/ha ([1]; Solanum, pre-emergence, 31 g ai/ha, scale 0 to 100 (0 no effect, 100 complete control), read-out: Plant response rating, Nightshade, E. B.): 0% | pest or weed control at 62 g/ha ([1]; Solanum, pre-emergence, 62 g ai/ha, 0 to 100 scale, 0 no effect, 100 complete control, read-out: Plant response rating, Nightshade, E. B.): 0% | Surinam Grass plant response rating [2, 8]: 60 | Surinam Grass plant response rating [2, 9]: 70 | Surinam Grass plant response rating [2, 10]: 45 | Surinam Grass plant response rating [2, 11]: 50 | pest or weed control at 31 g/ha [2, 12]: 75% | pest or weed control at 62 g/ha [2, 13]: 85% | pest or weed control at 31 g/ha [2, 14]: 80% | pest or weed control at 62 g/ha [2, 15]: 98% | Morningglory plant response rating [3, 8]: 0 | Morningglory plant response rating [3, 9]: 0 | pest or weed control at 31 g/ha [3, 12]: 0% | pest or weed control at 62 g/ha [3, 13]: 0% | pest or weed control at 31 g/ha [3, 14]: 0% | pest or weed control at 62 g/ha [3, 15]: 0% | Morningglory plant response rating [3, 10]: 0 | Morningglory plant response rating [3, 11]: 0 | pest or weed control at 31 g/ha ([4]; Galium aparine, pre-emergence, 31 g ai/ha, scale 0 to 100 (0 no effect, 100 complete control), read-out: Plant response rating, Galium): 0% | pest or weed control at 62 g/ha ([4]; Galium aparine, pre-emergence, 62 g ai/ha, 0 to 100 scale, 0 no effect, 100 complete control, read-out: Plant response rating, Galium): 0% | Galium plant response rating ([4]; 8 g ai/ha): 0 | Galium plant response rating ([4]; 16 g ai/ha): 0 | Ryegrass, Italian plant response rating [5, 8]: 30 | Ryegrass, Italian plant response rating [5, 9]: 50 | pest or weed control at 31 g/ha [5, 12]: 95% | pest or weed control at 62 g/ha [5, 13]: 98% | pest or weed control at 31 g/ha [5, 14]: 98% | pest or weed control at 62 g/ha [5, 15]: 98% | Ryegrass, Italian plant response rating [5, 10]: 0 | Ryegrass, Italian plant response rating [5, 11]: 30 | Cocklebur plant response rating [6, 8]: 0 | Cocklebur plant response rating [6, 10]: 0 | Cocklebur plant response rating [6, 11]: 0 | pest or weed control at 16 g/ha ([6]; Xanthium strumarium, post-emergence, Postemergence, 16 g ai/ha, scale 0 to 100, read-out: Plant response rating, Cocklebur): 0% | pest or weed control at 31 g/ha ([6]; Xanthium strumarium, post-emergence, Postemergence, scale 0 to 100, read-out: Plant response rating, Cocklebur): 0% | pest or weed control at 62 g/ha ([6]; Xanthium strumarium, post-emergence, Postemergence, scale 0 to 100, 0 no effect, read-out: Plant response rating, Cocklebur): 0% | pest or weed control at 31 g/ha ([6]; Xanthium strumarium, pre-emergence, Preemergence, scale 0 to 100 (0 no effect, 100 complete control), read-out: Plant response rating, Cocklebur): 0% | pest or weed control at 62 g/ha ([6]; Xanthium strumarium, pre-emergence, Preemergence, 0 to 100 scale, 0 no effect, read-out: Plant response rating, Cocklebur): 0% | Nutsedge, Yellow plant response rating [7, 8]: 0 | Nutsedge, Yellow plant response rating [7, 9]: 0 | pest or weed control at 31 g/ha [7, 12]: 0% | pest or weed control at 62 g/ha [7, 13]: 0% | pest or weed control at 31 g/ha [7, 14]: 0% | pest or weed control at 62 g/ha [7, 15]: 0% | Nutsedge, Yellow plant response rating [7, 10]: 0 | Nutsedge, Yellow plant response rating [7, 11]: 0
